Reference: patent US20220411495A1, “POSITIVE ALLOSTERIC MODULATORS OF THE CALCIUM-SENSING RECEPTOR” (VIB VZW, priority 2019, published 2022)

Target: T1, CaSR 7-transmembrane domain allosteric binding site (Homo sapiens, UniProt P41180)
T1 sequence (P41180 20-1078): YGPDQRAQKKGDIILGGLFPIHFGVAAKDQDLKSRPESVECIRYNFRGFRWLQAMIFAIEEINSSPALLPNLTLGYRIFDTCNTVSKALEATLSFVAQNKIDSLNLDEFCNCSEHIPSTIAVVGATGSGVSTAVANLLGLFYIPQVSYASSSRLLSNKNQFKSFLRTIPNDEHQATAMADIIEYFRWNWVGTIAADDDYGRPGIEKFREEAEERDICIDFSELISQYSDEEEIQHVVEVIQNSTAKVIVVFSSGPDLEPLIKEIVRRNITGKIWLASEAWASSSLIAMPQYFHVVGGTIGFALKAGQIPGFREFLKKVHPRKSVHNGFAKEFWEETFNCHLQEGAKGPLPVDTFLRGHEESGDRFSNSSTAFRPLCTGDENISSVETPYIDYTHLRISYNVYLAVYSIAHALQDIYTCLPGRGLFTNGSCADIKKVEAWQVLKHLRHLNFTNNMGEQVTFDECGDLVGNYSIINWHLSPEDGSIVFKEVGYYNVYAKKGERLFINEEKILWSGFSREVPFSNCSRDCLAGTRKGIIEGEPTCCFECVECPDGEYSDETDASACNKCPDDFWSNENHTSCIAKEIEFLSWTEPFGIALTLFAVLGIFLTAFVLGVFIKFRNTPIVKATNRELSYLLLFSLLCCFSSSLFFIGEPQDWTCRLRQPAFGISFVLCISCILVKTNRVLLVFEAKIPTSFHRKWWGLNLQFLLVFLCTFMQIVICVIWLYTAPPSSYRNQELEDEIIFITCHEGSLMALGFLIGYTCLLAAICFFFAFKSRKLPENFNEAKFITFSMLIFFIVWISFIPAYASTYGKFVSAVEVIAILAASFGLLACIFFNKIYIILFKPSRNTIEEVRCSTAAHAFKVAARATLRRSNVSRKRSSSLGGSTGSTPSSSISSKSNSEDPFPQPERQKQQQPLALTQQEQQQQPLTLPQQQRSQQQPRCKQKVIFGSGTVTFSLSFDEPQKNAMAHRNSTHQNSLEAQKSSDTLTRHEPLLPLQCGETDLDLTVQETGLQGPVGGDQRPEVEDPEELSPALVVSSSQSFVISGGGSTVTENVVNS
Assay: [3H]evocalcet radioligand displacement
Method: For the seven different nanobodies with potencies in the 10 to 600 nM range, further characterization of their recognition site on the CaSR antigen was performed, since the identification of the nanobody binding-sites at the CaSR is key to understand their interaction and mode-of-action at a molecular and structural level, and will further aid in the development of second-generation nanobodies with enhanced pharmacological parameters. Nanobodies belonging to each family of the five different nanobody families are expected to interact with distinct regions of the CaSR.

## CC(C)(Cc1ccc2ccccc2c1)NC[C@@H](O)COc1cccc(Cl)c1C#N [NPS 2143]
  Displacement of [3H]evocalcet binding: did displace
